{
  "source": "patent US20150030583A1",
  "about": "“Methods of Treating Serosal Cancer” (SLOAN KETTERING INSTITUTE FOR CANCER RESEARCH, priority 2011, published 2015)",
  "note": "Where a name gives a salt, the structure may show the parent alone.",
  "data": [
    {"system": "Ovcar3-GTL catenae", "assay": "Ovcar3-GTL catena drug sensitivity / proliferation screen (alamarBlue, 384-well)", "conditions": "ratio of IC50 day 6 to day 1, Ovcar3-GTL catenae", "values": [
      {"smiles": "C=CCNC1=C2C[C@@H](C)C[C@H](OC)[C@H](O)[C@@H](C)/C=C(\\C)[C@H](OC(N)=O)[C@@H](OC)/C=C\\C=C(/C)C(=O)NC(=CC1=O)C2=O", "note": "[17AAG]", "Increase in Resistance Day6/Day 1": "33 fold"},
      {"smiles": "C/C(=C\\c1csc(C)n1)[C@@H]1C[C@@H]2O[C@]2(C)CCC[C@H](C)[C@H](O)[C@@H](C)C(=O)C(C)(C)[C@@H](O)CC(=O)O1", "note": "[Epo-B]", "Increase in Resistance Day6/Day 1": "4,000 fold"}
    ]},
    {"system": "Ovcar3-GTL catenae", "assay": "Ovcar3-GTL catena drug sensitivity / proliferation screen (alamarBlue, 384-well)", "conditions": "read-out: IC50 (μM) Addition on Day 1; Ovcar3-GTL catenae; compound added one day after seeding (cells predominantly lacking a glycocalyx)", "units": {"IC50": "µM"}, "values": [
      {"smiles": "C=CCNC1=C2C[C@@H](C)C[C@H](OC)[C@H](O)[C@@H](C)/C=C(\\C)[C@H](OC(N)=O)[C@@H](OC)/C=C\\C=C(/C)C(=O)NC(=CC1=O)C2=O", "note": "[17AAG]", "IC50": 0.012},
      {"smiles": "C/C(=C\\c1csc(C)n1)[C@@H]1C[C@@H]2O[C@]2(C)CCC[C@H](C)[C@H](O)[C@@H](C)C(=O)C(C)(C)[C@@H](O)CC(=O)O1", "note": "[Epo-B]", "IC50": 0.025}
    ]},
    {"system": "Ovcar3-GTL catenae", "assay": "Ovcar3-GTL catena drug sensitivity / proliferation screen (alamarBlue, 384-well)", "conditions": "read-out: IC50 (μM) Addition on Day 6; Ovcar3-GTL catenae; compound added six days after seeding (established or substantial glycocalyx)", "units": {"IC50": "µM"}, "values": [
      {"smiles": "C=CCNC1=C2C[C@@H](C)C[C@H](OC)[C@H](O)[C@@H](C)/C=C(\\C)[C@H](OC(N)=O)[C@@H](OC)/C=C\\C=C(/C)C(=O)NC(=CC1=O)C2=O", "note": "[17AAG]", "IC50": 0.4},
      {"smiles": "C/C(=C\\c1csc(C)n1)[C@@H]1C[C@@H]2O[C@]2(C)CCC[C@H](C)[C@H](O)[C@@H](C)C(=O)C(C)(C)[C@@H](O)CC(=O)O1", "note": "[Epo-B]", "IC50": "> 100"}
    ]},
    {"system": "Ovcar3-GTL catenae", "assay": "Ovcar3-GTL catena drug sensitivity / proliferation screen (alamarBlue, 384-well)", "conditions": "read-out: IC50 (μM) No coat", "units": {"IC50": "µM"}, "values": [
      {"smiles": "CC[C@@H]1C(=O)N(C)c2cnc(Nc3ccc(C(=O)NC4CCN(C)CC4)cc3OC)nc2N1C1CCCC1", "note": "[BI 2536]", "IC50": "< 0.001"},
      {"smiles": "O=C(NOC[C@H](O)CO)c1ccc(F)c(F)c1Nc1ccc(I)cc1F", "note": "[PD0325901]", "IC50": 0.2},
      {"smiles": "N#CC(=C(/N)Sc1ccccc1N)/C(C#N)=C(\\N)Sc1ccccc1N", "note": "[U0126]", "IC50": 13.4}
    ]},
    {"system": "Ovcar3-GTL catenae", "assay": "Ovcar3-GTL catena drug sensitivity / proliferation screen (alamarBlue, 384-well)", "conditions": "read-out: IC50 (μM) No coat, pathway-specific inhibitors; catena cells without glycocalyx coat", "units": {"IC50": "µM"}, "values": [
      {"smiles": "C[C@]1(c2nc3c(C(N)=O)cccc3[nH]2)CCCN1", "note": "[ABT-888 (Veliparib), Veliparib]", "IC50": 13.4},
      {"smiles": "COc1cc2nccc(Oc3ccc(NC(=O)Nc4cc(C)on4)c(Cl)c3)c2cc1OC", "note": "[AV-951 (Tivozanib), Tivozanib]", "IC50": 13.4},
      {"smiles": "CNC(=O)c1cc(Oc2ccc(NC(=O)Nc3ccc(Cl)c(C(F)(F)F)c3)c(F)c2)ccn1", "note": "[BAY 73-4506 (Regorafenib), Regorafenib]", "IC50": 13.4},
      {"smiles": "Cn1c(=O)n(-c2ccc(C(C)(C)C#N)cc2)c2c3cc(-c4cnc5ccccc5c4)ccc3ncc21", "note": "[BEZ235 (NVP-BEZ235)]", "IC50": 0.05},
      {"smiles": "COC(=O)c1ccc2c(c1)NC(=O)/C2=C(\\Nc1ccc(N(C)C(=O)CN2CCN(C)CC2)cc1)c1ccccc1", "note": "[BIBF1120 (Vargatef)]", "IC50": 13.4},
      {"smiles": "O=C(NOCC1CC1)c1ccc(F)c(F)c1Nc1ccc(I)cc1Cl", "note": "[CI-1040 (PD184352)]", "IC50": "> 25"},
      {"smiles": "CS(=O)(=O)c1ccc(C(=O)Nc2ccc(Cl)c(-c3ccccn3)c2)c(Cl)c1", "note": "[GDC-0449 (Vismodegib), Vismodegib]", "IC50": "> 25"},
      {"smiles": "OCCn1cc(-c2ccc3c(c2)CC/C3=N\\O)c(-c2ccncc2)n1", "note": "[GDC-0879]", "IC50": "> 25"},
      {"smiles": "CCc1cc(Nc2nccc(-c3c(-c4ccc(OC)c(C(=O)Nc5c(F)cccc5F)c4)nc4ccccn34)n2)c(OC)cc1N1CCC(N2CCN(S(C)(=O)=O)CC2)CC1", "note": "[GSK1904529A]", "IC50": "> 25"},
      {"smiles": "O=c1cc(-c2cccc3c2Sc2ccccc2S3)oc(N2CCOCC2)c1", "note": "[KU-55933]", "IC50": 13.4},
      {"smiles": "Nc1cccc2c1CN(C1CCC(=O)NC1=O)C2=O", "note": "(stereo not drawn) [Lenalidomide]", "IC50": "> 25"},
      {"smiles": "Cc1ccc(NC(=O)c2ccc(CN3CCN(C)CC3)cc2)cc1Nc1nc(-c2cccnc2)cs1", "note": "[Masitinib (AB1010), Masitinib]", "IC50": 13.4},
      {"smiles": "CC1(C)CNc2cc(NC(=O)c3cccnc3NCc3ccncc3)ccc21", "note": "[Motesanib Diphosphate (AMG-706), Motesanib Diphosphate]", "IC50": "> 25"},
      {"smiles": "OCCn1cc(-c2cnc3nnn(Cc4ccc5ncccc5c4)c3n2)cn1", "note": "[PF-04217903]", "IC50": "> 25"},
      {"smiles": "Cc1ccc(Nc2nccc(N(C)c3ccc4c(C)n(C)nc4c3)n2)cc1S(N)(=O)=O", "note": "[Pazopanib Hydrochloride]", "IC50": "> 25"},
      {"smiles": "Cn1cc(C2=C(c3ccc(Cl)cc3Cl)C(=O)NC2=O)c2ccccc21", "note": "[SB 216763]", "IC50": "> 25"},
      {"smiles": "CNC(=O)c1cc(Oc2ccc(NC(=O)Nc3ccc(Cl)c(C(F)(F)F)c3)cc2)ccn1", "note": "[Sorafenib Tosylate (Bay 43-9006), Sorafenib Tosylate]", "IC50": 13.4},
      {"smiles": "COc1cc2c(N3CCN(C(=O)Nc4ccc(OC(C)C)cc4)CC3)ncnc2cc1OCCCN1CCCCC1", "note": "[Tandutinib (MLN518), Tandutinib]", "IC50": 13.4},
      {"smiles": "Cc1cc(Nc2cc(N3CCN(C)CC3)nc(Sc3ccc(NC(=O)C4CC4)cc3)n2)[nH]n1", "note": "[VX-680 (Tozasertib), Tozasertib]", "IC50": 0.05},
      {"smiles": "Clc1ccc(Nc2nnc(Cc3ccncc3)c3ccccc23)cc1", "note": "[Vatalanib]", "IC50": "> 25"},
      {"smiles": "COc1cc2c(Oc3ccc(NC(=O)C4(C(=O)Nc5ccc(F)cc5)CC4)cc3F)ccnc2cc1OCCCN1CCOCC1", "note": "[XL880 (GSK1363089EXEL-2880)]", "IC50": 0.05}
    ]},
    {"system": "Ovcar3-GTL catenae", "assay": "Ovcar3-GTL catena drug sensitivity / proliferation screen (alamarBlue, 384-well)", "conditions": "read-out: IC50 (μM) With coat", "units": {"IC50": "µM"}, "values": [
      {"smiles": "CC[C@@H]1C(=O)N(C)c2cnc(Nc3ccc(C(=O)NC4CCN(C)CC4)cc3OC)nc2N1C1CCCC1", "note": "[BI 2536]", "IC50": 13.4},
      {"smiles": "O=C(NOC[C@H](O)CO)c1ccc(F)c(F)c1Nc1ccc(I)cc1F", "note": "[PD0325901]", "IC50": "> 25"},
      {"smiles": "N#CC(=C(/N)Sc1ccccc1N)/C(C#N)=C(\\N)Sc1ccccc1N", "note": "[U0126]", "IC50": "> 25"}
    ]},
    {"system": "Ovcar3-GTL catenae", "assay": "Ovcar3-GTL catena drug sensitivity / proliferation screen (alamarBlue, 384-well)", "conditions": "read-out: IC50 (μM) With coat, pathway-specific inhibitors; catena cells with glycocalyx coat", "units": {"IC50": "µM"}, "values": [
      {"smiles": "C[C@]1(c2nc3c(C(N)=O)cccc3[nH]2)CCCN1", "note": "[ABT-888 (Veliparib), Veliparib]", "IC50": "> 25"},
      {"smiles": "COc1cc2nccc(Oc3ccc(NC(=O)Nc4cc(C)on4)c(Cl)c3)c2cc1OC", "note": "[AV-951 (Tivozanib), Tivozanib]", "IC50": "> 25"},
      {"smiles": "CNC(=O)c1cc(Oc2ccc(NC(=O)Nc3ccc(Cl)c(C(F)(F)F)c3)c(F)c2)ccn1", "note": "[BAY 73-4506 (Regorafenib), Regorafenib]", "IC50": 13.4},
      {"smiles": "Cn1c(=O)n(-c2ccc(C(C)(C)C#N)cc2)c2c3cc(-c4cnc5ccccc5c4)ccc3ncc21", "note": "[BEZ235 (NVP-BEZ235)]", "IC50": "> 25"},
      {"smiles": "COC(=O)c1ccc2c(c1)NC(=O)/C2=C(\\Nc1ccc(N(C)C(=O)CN2CCN(C)CC2)cc1)c1ccccc1", "note": "[BIBF1120 (Vargatef)]", "IC50": 13.4},
      {"smiles": "O=C(NOCC1CC1)c1ccc(F)c(F)c1Nc1ccc(I)cc1Cl", "note": "[CI-1040 (PD184352)]", "IC50": "> 25"},
      {"smiles": "CS(=O)(=O)c1ccc(C(=O)Nc2ccc(Cl)c(-c3ccccn3)c2)c(Cl)c1", "note": "[GDC-0449 (Vismodegib), Vismodegib]", "IC50": "> 25"},
      {"smiles": "OCCn1cc(-c2ccc3c(c2)CC/C3=N\\O)c(-c2ccncc2)n1", "note": "[GDC-0879]", "IC50": "> 25"},
      {"smiles": "O=c1cc(-c2cccc3c2Sc2ccccc2S3)oc(N2CCOCC2)c1", "note": "[KU-55933]", "IC50": 13.4},
      {"smiles": "Nc1cccc2c1CN(C1CCC(=O)NC1=O)C2=O", "note": "(stereo not drawn) [Lenalidomide]", "IC50": "> 25"},
      {"smiles": "Cc1ccc(NC(=O)c2ccc(CN3CCN(C)CC3)cc2)cc1Nc1nc(-c2cccnc2)cs1", "note": "[Masitinib (AB1010), Masitinib]", "IC50": 13.4},
      {"smiles": "CC1(C)CNc2cc(NC(=O)c3cccnc3NCc3ccncc3)ccc21", "note": "[Motesanib Diphosphate (AMG-706), Motesanib Diphosphate]", "IC50": "> 25"},
      {"smiles": "Cc1ccc(Nc2nccc(N(C)c3ccc4c(C)n(C)nc4c3)n2)cc1S(N)(=O)=O", "note": "[Pazopanib Hydrochloride]", "IC50": "> 25"},
      {"smiles": "Cn1cc(C2=C(c3ccc(Cl)cc3Cl)C(=O)NC2=O)c2ccccc21", "note": "[SB 216763]", "IC50": "> 25"},
      {"smiles": "CNC(=O)c1cc(Oc2ccc(NC(=O)Nc3ccc(Cl)c(C(F)(F)F)c3)cc2)ccn1", "note": "[Sorafenib Tosylate (Bay 43-9006), Sorafenib Tosylate]", "IC50": 13.4},
      {"smiles": "COc1cc2c(N3CCN(C(=O)Nc4ccc(OC(C)C)cc4)CC3)ncnc2cc1OCCCN1CCCCC1", "note": "[Tandutinib (MLN518), Tandutinib]", "IC50": 13.4},
      {"smiles": "Cc1cc(Nc2cc(N3CCN(C)CC3)nc(Sc3ccc(NC(=O)C4CC4)cc3)n2)[nH]n1", "note": "[VX-680 (Tozasertib), Tozasertib]", "IC50": "> 25"},
      {"smiles": "Clc1ccc(Nc2nnc(Cc3ccncc3)c3ccccc23)cc1", "note": "[Vatalanib]", "IC50": "> 25"},
      {"smiles": "COc1cc2c(Oc3ccc(NC(=O)C4(C(=O)Nc5ccc(F)cc5)CC4)cc3F)ccnc2cc1OCCCN1CCOCC1", "note": "[XL880 (GSK1363089EXEL-2880)]", "IC50": 13.4}
    ]},
    {"system": "Ovcar3-GTL catenae", "assay": "Ovcar3-GTL catena drug sensitivity / proliferation screen (alamarBlue, 384-well)", "conditions": "read-out: IC50 (μM) With coat; pathway-specific inhibitors; catena cells with glycocalyx coat", "units": {"IC50": "µM"}, "values": [
      {"smiles": "CCc1cc(Nc2nccc(-c3c(-c4ccc(OC)c(C(=O)Nc5c(F)cccc5F)c4)nc4ccccn34)n2)c(OC)cc1N1CCC(N2CCN(S(C)(=O)=O)CC2)CC1", "note": "[GSK1904529A]", "IC50": "> 25"},
      {"smiles": "OCCn1cc(-c2cnc3nnn(Cc4ccc5ncccc5c4)c3n2)cn1", "note": "[PF-04217903]", "IC50": "> 25"}
    ]}
  ]
}
